Measured values from patent publication US12589143B2, “Human anti-PD-L1 peptide vaccines and methods of their use” (priority 2019, dated 2026).
“And” between values parts separate entries of the source, which are not always exact repeats. Equal entries are not always repeated. Where no end group is shown, it is not given here.

System: MVF-PD-L1 peptide immunogen
Experiment: Immunogenicity in Balb/c mice, experiment 1 (CT26 WT): ELISA of sera vs each MVF-PD-L1 peptide immunogen
Format: in vivo
Conditions: for Immunogenicity (titers) 1′ Conc. 1:: Balb/c mice
Method in brief: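 Female Balb/c mice aged 6–8 weeks received 100 μg of each MVF-PD-L1 peptide in Montanide ISA 720 with nor-MDP three times at 3-week intervals. Weekly sera were titered by ELISA against each immunogen on 200 ng/well peptide. Titer was the highest dilution giving absorbance 0.2 after blank subtraction.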

In the case of “KLLSLIKGVIVHRLEGVEGPSLYRCMISYGGADYKRITVK (KLLSLIKGVIVHRLEGVEGPSLYRCMISYGGADYKRITVK-NH2) [PD-L1(95)]”, the “Immunogenicity (titers) 1′ Conc. 1:” value (bleed 1Y + 3) is reported as 0, the “Immunogenicity (titers) 1′ Conc. 1:” value (bleed 2Y + 1) is reported as 12800 and the “Immunogenicity (titers) 1′ Conc. 1:” value (bleed 2Y + 2) is reported as 32000. For the same sequence, the “Immunogenicity (titers) 1′ Conc. 1:” value (bleed 2Y + 3) was 32000, the “Immunogenicity (titers) 1′ Conc. 1:” value (bleed 3Y + 1) was 32000 and the “Immunogenicity (titers) 1′ Conc. 1:” value (bleed 3Y + 2) was 64000. For the same sequence, the “Immunogenicity (titers) 1′ Conc. 1:” value (bleed 3Y + 3) was 32000, the “ELISA absorbance of sera” value (bleed 1Y + 3 (1to100), dilution 100) was 0.165 and 0.150 and the “ELISA absorbance of sera” value (bleed 1Y + 3 (1to100), dilution 200) was 0.088 and 0.078. For the same sequence, the “ELISA absorbance of sera” value (bleed 1Y + 3 (1to100), dilution 400) was 0.040 and 0.036, the “ELISA absorbance of sera” value (bleed 1Y + 3 (1to100), dilution 800) was 0.020 and 0.021 and the “ELISA absorbance of sera” value (bleed 1Y + 3 (1to100), dilution 1,600) was 0.008 and 0.007. The “ELISA absorbance of sera” value (bleed 1Y + 3 (1to100), dilution 3,200) was 0.006, the “ELISA absorbance of sera” value (bleed 1Y + 3 (1to100), dilution 6,400) was 0.002 and 0.001 and the “ELISA absorbance of sera” value (bleed 2Y + 1 (1to100), dilution 100) was 1.499 and 1.508. The “ELISA absorbance of sera” value (bleed 2Y + 1 (1to100), dilution 200) was 1.399 and 1.429, the “ELISA absorbance of sera” value (bleed 2Y + 1 (1to100), dilution 400) was 1.232 and 1.283 and the “ELISA absorbance of sera” value (bleed 2Y + 1 (1to100), dilution 800) was 0.988 and 1.067. For the same sequence, the “ELISA absorbance of sera” value (bleed 2Y + 1 (1to100), dilution 1,600) was 0.768 and 0.793, the “ELISA absorbance of sera” value (bleed 2Y + 1 (1to100), dilution 3,200) was 0.508 and 0.560 and the “ELISA absorbance of sera” value (bleed 2Y + 1 (1to100), dilution 6,400) was 0.303 and 0.339. The “ELISA absorbance of sera” value (bleed 2Y + 1 (1to100), dilution 12,800) was 0.235 and 0.201, the “ELISA absorbance of sera” value (bleed 2Y + 2 (1to1k), dilution row 100 (Table 5C), dilution 100) was 1.553 and 1.522 and the “ELISA absorbance of sera” value (bleed 2Y + 2 (1to1k), dilution row 200 (Table 5C), dilution 200) was 1.327 and 1.281. For the same sequence, the “ELISA absorbance of sera” value (bleed 2Y + 2 (1to1k), dilution row 400 (Table 5C), dilution 400) was 1.035 and 0.982, the “ELISA absorbance of sera” value (bleed 2Y + 2 (1to1k), dilution row 800 (Table 5C), dilution 800) was 0.777 and 0.736 and the “ELISA absorbance of sera” value (bleed 2Y + 2 (1to1k), dilution row 1,600 (Table 5C)) was 0.502 and 0.525. The “ELISA absorbance of sera” value (bleed 2Y + 2 (1to1k), dilution row 3,200 (Table 5C)) was 0.294 and 0.299, the “ELISA absorbance of sera” value (bleed 2Y + 2 (1to1k), dilution row 6,400 (Table 5C)) was 0.171 and 0.156 and the “ELISA absorbance of sera” value (bleed 2Y + 2 (1to1k), dilution row 12,800 (Table 5C)) was 0.085. The “ELISA absorbance of sera” value (bleed 2Y + 3 (1to1k), dilution 100) was 1.256 and 1.224, the “ELISA absorbance of sera” value (bleed 2Y + 3 (1to1k), dilution 200) was 1.126 and 1.121 and the “ELISA absorbance of sera” value (bleed 2Y + 3 (1to1k), dilution 400) was 0.933 and 0.900. For the same sequence, the “ELISA absorbance of sera” value (bleed 2Y + 3 (1to1k), dilution 800) was 0.714 and 0.699, the “ELISA absorbance of sera” value (bleed 2Y + 3 (1to1k), dilution 1,600) was 0.500 and 0.484 and the “ELISA absorbance of sera” value (bleed 2Y + 3 (1to1k), dilution 3,200) was 0.318 and 0.296. The “ELISA absorbance of sera” value (bleed 2Y + 3 (1to1k), dilution 6,400) was 0.150 and 0.154, the “ELISA absorbance of sera” value (bleed 3Y + 1 (1to1k), dilution 100) was 1.597 and 1.466 and the “ELISA absorbance of sera” value (bleed 3Y + 1 (1to1k), dilution 200) was 1.387 and 1.308. For the same sequence, the “ELISA absorbance of sera” value (bleed 3Y + 1 (1to1k), dilution 400) was 1.090 and 0.994, the “ELISA absorbance of sera” value (bleed 3Y + 1 (1to1k), dilution 800) was 0.859 and 0.753 and the “ELISA absorbance of sera” value (bleed 3Y + 1 (1to1k), dilution 1,600) was 0.527 and 0.511. The “ELISA absorbance of sera” value (bleed 3Y + 1 (1to1k), dilution 3,200) was 0.275 and 0.263, the “ELISA absorbance of sera” value (bleed 3Y + 1 (1to1k), dilution 6,400) was 0.154 and 0.081 and the “ELISA absorbance of sera” value (bleed 3Y + 2 (1to1k), dilution 100) was 2.076 and 1.906. For the same sequence, the “ELISA absorbance of sera” value (bleed 3Y + 2 (1to1k), dilution 200) was 1.803 and 1.701, the “ELISA absorbance of sera” value (bleed 3Y + 2 (1to1k), dilution 400) was 1.417 and 1.293 and the “ELISA absorbance of sera” value (bleed 3Y + 2 (1to1k), dilution 800) was 1.116 and 0.979. For the same sequence, the “ELISA absorbance of sera” value (bleed 3Y + 2 (1to1k), dilution 1,600) was 0.685 and 0.664, the “ELISA absorbance of sera” value (bleed 3Y + 2 (1to1k), dilution 3,200) was 0.357 and 0.342 and the “ELISA absorbance of sera” value (bleed 3Y + 2 (1to1k), dilution 6,400) was 0.201 and 0.205. The “ELISA absorbance of sera” value (bleed 3Y + 3 (1to1k), dilution 100) was 1.811 and 1.973, the “ELISA absorbance of sera” value (bleed 3Y + 3 (1to1k), dilution 200) was 1.616 and 1.713 and the “ELISA absorbance of sera” value (bleed 3Y + 3 (1to1k), dilution 400) was 1.228 and 1.346. For the same sequence, the “ELISA absorbance of sera” value (bleed 3Y + 3 (1to1k), dilution 800) was 0.930 and 1.061, the “ELISA absorbance of sera” value (bleed 3Y + 3 (1to1k), dilution 1,600) was 0.631 and 0.651 and the “ELISA absorbance of sera” value (bleed 3Y + 3 (1to1k), dilution 3,200) was 0.230 and 0.244. The “ELISA absorbance of sera” value (bleed 3Y + 3 (1to1k), dilution 6,400) was 0.081 and 0.096.
